Legend:
[1] = system: TNF-α production from mouse intraperitoneal macrophages; assay: IC50 for TNF-α production from mouse macrophages, LPS + IFN-γ, nucleic acid derivatives (Experiment 19); type: cell-based
Excerpt: After completion of the culture, the supernatant in each well was collected and assayed for cytokines and prostaglandin E2 (called “PGE2”, hereinafter) with ELISA.

[2] = system: IFN-γ production of spleen cells; assay: IFN-γ production of spleen cells stimulated with anti-CD3 antibody, from gel-treated mice (Experiment 16); type: in vivo, NC/Nga mice
Protocol: (§1) On Friday of the 6th week of the induction (46th day after initiating the application), all the mice were sacrificed, followed by isolating their spleens and collecting spleen cells in usual manner. […] To each well 2 μg/mL of “Purified Mouse CD3ε Monoclonal Antibody”, a product name of an anti-CD3 antibody, commercialized by Cosmo Bio Co., Ltd., Tokyo, Japan, was added, and the cells were incubated at 37° C. for three days in a 5% v/v CO2 incubator, followed by assaying the levels of cytokines in each supernatant thereof.
(§2) The results are in Table 19 in parallel.

[3] = system: IL-6 production of spleen cells; assay: IL-6 production of spleen cells stimulated with anti-CD3 antibody, from gel-treated mice (Experiment 16); type: in vivo, NC/Nga mice
Protocol: as §1, §2

NHEK cells = assay: Proliferation of NHEK cells irradiated with ultraviolet rays, fluorescent intensity (Experiment 17); type: cell-based, human; conditions: stimulation by ultraviolet rays
Protocol: “CELLMATRIX TYPE IV”, a product name of collagen for tissue culture commercialized by Nitta Gelatin Inc., Osaka, Japan, which had been diluted with PBS(K-) by 10 times, was previously placed in “FALCON 35-3001”, a product name of 35 mm petri dish commercialized by Becton Dickinson and Company, NJ, USA, in an amount of 1 mL/plate, and then allowed to stand at ambient temperature for 10 min, followed by removing an excessive amount of CELLMATRIX, drying the petri dish in air, and washing it thrice with PBS(K-). […] The cells were cultured at 37° C. in a 5% v/v CO2 incubator. On the 2nd and 4th days after the cell inoculation, the medium was replaced with EpiLife medium free of EDGS (1 mL/plate). On the 5th day after the cell inoculation, the supernatant was removed, and the petri dish was washed twice by adding 1 mL/petri dish of Hanks' balanced salt solution (called “HBSS (−) buffer”, hereinafter). Further, 2 mL/petri dish of HBSS (−) buffer was added to the petri dish which was then placed in the position 15 cm apart from an ultraviolet ray light source and irradiated with 40 mJ/cm^2 of ultraviolet B radiation. […] As an ultraviolet ray light source, “NS-8F”, a light source for actual use commercialized by Sanwa Medical Co., Ltd., Okayama, Japan, equipped with an ultraviolet B radiation lamp was used, and the radiation dose was measured on “UVR-305/365D (II)”, an ultraviolet ray meter commercialized by Topcon Corporation, Tokyo, Japan. TNF-α was assayed by the same method as in Experiment 2. The remaining other cytokines were assayed with an IL-1α assay kit, commercialized by R & D Systems Inc., MN, USA, and an IL-8 assay kit commercialized by BioLegend, CA, USA.

[4] = system: mice with colitis induced by dextran sulfate sodium; assay: Dextran sulfate sodium colitis mice: diarrhea/hematochezia scores, DAI, haptoglobin (Experiment 13); type: in vivo, C57BL/6 mice; conditions: dextran sulfate sodium intake, 94 mg/kg orally once a day
Protocol: Dextran sulfate sodium (commercialized by MP Biomedicals, CA, USA, molecular weight of 36,000 to 50,000) was dissolved in tap water, and all the mice of these five groups consisting of eight heads each were allowed to freely take the solution for five days (Experiment groups 2 to 5). […] The eight mice of the remaining one group were administered through a gastric tube with PBS once a day at a dose of 0.2 mL/head over 11 days from the day of initiating the administration of dextran sulfate sodium (Experiment group 2). The five mice of one group, which had not been administered with dextran sulfate sodium, were bred for 11 days on the normal feed while allowing them to take tap water freely (Experiment group 1).
The mice were weighed and their degree of diarrhea and hematochezia were macroscopically observed every day over 11 days from the day of initiating the intake of dextran sulfate sodium. The body weight reduction percentage (%) was determined by dividing the body weight of a mouse at 11th day after initiating the intake of dextran sulfate sodium by the body weight of the mouse at the day of initiating the intake, and multiplying the value by 100, and subtracting the resulting value from 100. The scores of diarrhea and hematochezia and the body weight reduction percentage (%) in each mouse were scored according to the criteria as shown in Table 13. For each group, the average of the total scores of diarrhea and hematochezia on days ranging from the day (intake day 0) of initiating the intake of dextran sulfate sodium to 11th day therefrom (intake day 10) are determined and shown in Table 14. The total scores of diarrhea, hematochezia, and body weight reduction percentage for each mouse at 11th day (intake day 10) after initiating the intake of dextran sulfate sodium are calculated for disease activity index (DAI) used as an index for colitis, averaged for each group, and shown in Table 14. On 11th day after initiating the intake of dextran sulfate sodium, each mouse was collected blood, followed by assaying haptoglobin or an acute phase protein, as an index for inflammatory, on an ELISA kit commercialized by Life Diagnostics USA, and averaging the data for each group. The results are in Table 14 in parallel. Since one mouse in Experiment group 2 administered with only dextran sulfate sodium was dead at 11th day after initiating the intake of dextran sulfate sodium, the results of Experiment group 2 at 11th day (intake day 10) after initiating the intake of dextran sulfate sodium represent the average of seven mice.

[5] = system: IL-5 production of spleen cells; assay: IL-5 production of spleen cells stimulated with anti-CD3 antibody, from gel-treated mice (Experiment 16); type: in vivo, NC/Nga mice
Protocol: as §1, §2

[6] = system: picryl chloride-sensitized mice; assay: Picryl chloride-sensitized mice atopic dermatitis, skin score (Experiment 16); type: in vivo, NC/Nga mice
Excerpt: as §2

[7] = compared to mice applied with gel prepared by adding refined water (Experiment group 1)
[8] = supernatant of spleen cells stimulated with anti-CD3 antibody, picryl chloride-sensitized mice applied with gel

Compound: Nc1ncnc2c1ncn2[C@@H]1O[C@H](CO)[C@@H](O)[C@H]1O [AN, adenosine]
- IC50 ([1]; Mus musculus, Macrophage, 20 h, read-out: IC50 Concentration TNF-α): 17.4 µM
- inhibitory action on the production of inflammatory cytokines (in words) ([1]; mouse intraperitoneal macrophages stimulated with LPS and IFN-γ): only a weak inhibitory action
- production level of IFN-γ of spleen cells stimulated with the anti-CD3 antibody [2, 7]: showed no difference
- Content of IFN-γ [2, 8]: 12.1 pg/mL
- production level of IL-6 of spleen cells stimulated with the anti-CD3 antibody [3, 7]: showed no difference
- Content of IL-6 [3, 8]: 192 ng/mL
- Proliferation (NHEK cells; 1 μM): 5701 Fluorescent intensity
- Proliferation (NHEK cells; 5 μM): 5683 Fluorescent intensity
- Proliferation (NHEK cells; 10 μM): 5578 Fluorescent intensity
- Content of haptoglobin ([4]; blood on 11th day): 4.0 mg/mL
- Total scores of diarrhea and hematochezia, day 0 ([4]; day 0): 0
- Total scores of diarrhea and hematochezia, day 1 ([4]; day 1): 0
- Total scores of diarrhea and hematochezia, day 2 ([4]; day 2): 0
- Total scores of diarrhea and hematochezia, day 3 ([4]; day 3): 0.3
- Total scores of diarrhea and hematochezia, day 4 ([4]; day 4): 1.0
- Total scores of diarrhea and hematochezia, day 5 ([4]; day 5): 1.4
- Total scores of diarrhea and hematochezia, day 6 ([4]; day 6): 1.3
- Total scores of diarrhea and hematochezia, day 7 ([4]; day 7): 1.4
- Total scores of diarrhea and hematochezia, day 8 ([4]; day 8): 1.4
- Total scores of diarrhea and hematochezia, day 9 ([4]; day 9): 1.4
- DAI (total scores of diarrhea, hematochezia, and body weight reduction percentage), day 10 ([4]; day 10): 4.6
- Total scores of diarrhea and hematochezia, day 10 ([4]; day 10): 1.6
- production level of IL-5 of spleen cells stimulated with the anti-CD3 antibody [5, 7]: showed no difference
- Content of IL-5 [5, 8]: 225 ng/mL
- Skin score, 21 days after the day of sensitizing with picryl chloride ([6]; gel on dorsal skin twice a day (ANO 14 mg/mL, AN or IN 13 mg/mL, prednisolone 6.7 mg/mL from 3rd induction week), day 21): 0.50
- Skin score, 24 days after the day of sensitizing with picryl chloride ([6]; gel on dorsal skin twice a day (ANO 14 mg/mL, AN or IN 13 mg/mL, prednisolone 6.7 mg/mL), day 24): 0.50
- Skin score, 28 days after the day of sensitizing with picryl chloride ([6]; gel on dorsal skin twice a day (ANO 14 mg/mL, AN or IN 13 mg/mL, prednisolone 6.7 mg/mL), day 28): 2.75
- Skin score, 31 days after the day of sensitizing with picryl chloride ([6]; gel on dorsal skin twice a day (ANO 14 mg/mL, AN or IN 13 mg/mL, prednisolone 6.7 mg/mL), day 31): 3.55
- Skin score, 35 days after the day of sensitizing with picryl chloride ([6]; gel on dorsal skin twice a day (ANO 14 mg/mL, AN or IN 13 mg/mL, prednisolone 6.7 mg/mL), day 35): 5.56
- Skin score, 39 days after the day of sensitizing with picryl chloride ([6]; gel on dorsal skin twice a day (ANO 14 mg/mL, AN or IN 13 mg/mL, prednisolone 6.7 mg/mL), day 39): 5.78
- Skin score, 42 days after the day of sensitizing with picryl chloride ([6]; gel on dorsal skin twice a day (ANO 14 mg/mL, AN or IN 13 mg/mL, prednisolone 6.7 mg/mL), day 42): 6.22
- Skin score, 45 days after the day of sensitizing with picryl chloride ([6]; gel on dorsal skin twice a day (ANO 14 mg/mL, AN or IN 13 mg/mL, prednisolone 6.7 mg/mL), day 45): 5.50

Source: patent US9757408B2 (Hayashibara Co., Ltd., priority 2010, dated 2017)
